Laboratory results: patent US8278345B2, “Inhibitors of glutaminyl cyclase” (Probiodrug AG, priority 2006, dated 2012)

biological target: hQC (Homo sapiens, UniProt Q16769); assay: Inhibitor assay for glutaminyl cyclase activity (fluorometric, H-Gln-βNA / H-Gln-AMC); format: biochemical; conditions: compound from preparative synthesis, purified; read-out: IC50 hQC
In short: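 Coupled fluorometric assay at 30 °C with pyroglutamyl aminopeptidase, in Tris/HCl pH 8.0 with EDTA, substrate H-Gln-βNA (0.2 mM; ex/em 320/410 nm) or H-Gln-AMC (ex/em 380/460 nm), initiated by QC. Screening: 4 mM inhibitor, substrate at 1 KM; Ki from progress curves fitted to competitive inhibition.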

hQC, sequence (Q16769 29-361): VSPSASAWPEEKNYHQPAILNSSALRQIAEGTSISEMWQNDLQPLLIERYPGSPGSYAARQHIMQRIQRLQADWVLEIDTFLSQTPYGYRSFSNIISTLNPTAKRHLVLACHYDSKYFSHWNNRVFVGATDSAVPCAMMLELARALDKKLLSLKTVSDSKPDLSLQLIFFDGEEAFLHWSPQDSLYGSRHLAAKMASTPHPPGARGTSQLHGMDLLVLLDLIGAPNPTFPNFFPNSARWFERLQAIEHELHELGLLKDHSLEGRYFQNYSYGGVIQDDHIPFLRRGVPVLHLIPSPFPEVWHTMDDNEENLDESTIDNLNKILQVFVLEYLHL

IC50 | Compound
0.0133 µM | O=C(C1=C(O)C(=O)N(c2ccc3[nH]cnc3c2)C1c1ccc(Cl)c(Cl)c1)C1CCCCC1 (stereo not drawn) [Compound 372, 1-(1H-Benzoimidazol-5-yl)-4-cyclohexanecarbonyl-5-(3,4-dichloro-phenyl)-3-hydroxy-1,5-dihydro-pyrrol-2-one]
0.0087 µM | CC(=O)C1=C(O)C(=O)N(c2ccc3[nH]cnc3c2)C1c1ccc2nsnc2c1 (stereo not drawn) [Compound 376, 4-Acetyl-1-(1H-benzoimidazol-5-yl)-5-benzo[c][1,2,5]thiadiazol-5-yl-3-hydroxy-1,5-dihydro-pyrrol-2-one]

same assay, conditions: read-out: IC50

Compound | IC50
O=C(C1=C(O)C(=O)N(c2ccc3[nH]cnc3c2)C1c1cccc(F)c1)C1CC1 (stereo not drawn) [Compound 370, 1-(1H-Benzoimidazol-5-yl)-4-cyclopropanecarbonyl-5-(3-fluoro-phenyl)-3-hydroxy-1,5-dihydro-pyrrol-2-one] | 7.69 µM
CC(C)C1=C(O)C(=O)N(c2ccc3[nH]cnc3c2)C1c1ccco1 (stereo not drawn) [Compound 371, 1-(1H-Benzoimidazol-5-yl)-5-furan-2-yl-3-hydroxy-4-isopropyl-1,5-dihydro-pyrrol-2-one] | 5.53 µM
O=C1C(O)=C(c2ccccc2)C(c2cc3ccccc3nc2Cl)N1c1ccc2[nH]cnc2c1 (stereo not drawn) [Compound 373, 1-(1H-Benzoimidazol-5-yl)-5-(2-chloro-quinolin-3-yl)-3-hydroxy-4-phenyl-1,5-dihydro-pyrrol-2-one] | 4.09 µM
CC(=O)C1=C(O)C(=O)N(c2ccc3[nH]cnc3c2)C1C1CC=CCC1 (stereo not drawn) [Compound 375, 4-Acetyl-1-(1H-benzoimidazol-5-yl)-5-cyclohex-3-enyl-3-hydroxy-1,5-dihydro-pyrrol-2-one] | 9.58 µM
CCCC(=O)C1=C(O)C(=O)N(c2ccc3[nH]cnc3c2)C1c1cc[nH]n1 (stereo not drawn) [Compound 378, 1-(1H-Benzoimidazol-5-yl)-4-butyryl-3-hydroxy-5-(1H-pyrazol-3-yl)-1,5-dihydro-pyrrol-2-one] | 4 µM
O=C(C1=C(O)C(=O)N(c2ccc3[nH]cnc3c2)C1c1cc[nH]n1)C1CCCCC1 (stereo not drawn) [Compound 379, 1-(1H-Benzoimidazol-5-yl)-4-cyclohexanecarbonyl-3-hydroxy-5-(1H-pyrazol-3-yl)-1,5-dihydro-pyrrol-2-one] | 5.26 µM
Cc1ccc2occ(C3C(C(=O)C(C)(C)C)=C(O)C(=O)N3c3ccc4[nH]cnc4c3)c(=O)c2c1 (stereo not drawn) [Compound 382, 1-(1H-Benzoimidazol-5-yl)-4-(2,2-dimethyl-propionyl)-3-hydroxy-5-(6-methyl-4-oxo-4H-chromen-3-yl)-1,5-dihydro-pyrrol-2-one] | 4 µM
CC(C)(C)C(=O)C1=C(O)C(=O)N(c2ccc3[nH]cnc3c2)C1c1cccc(F)c1F (stereo not drawn) [Compound 383, 1-(1H-Benzoimidazol-5-yl)-5-(2,3-difluoro-phenyl)-4-(2,2-dimethyl-propionyl)-3-hydroxy-1,5-dihydro-pyrrol-2-one] | 4.09 µM
Cc1cc(C2C(C(C)C)=C(O)C(=O)N2c2ccc3[nH]cnc3c2)oc1C (stereo not drawn) [Compound 388, 1-(1H-Benzoimidazol-5-yl)-5-(4,5-dimethyl-furan-2-yl)-3-hydroxy-4-isopropyl-1,5-dihydro-pyrrol-2-one] | 3.19 µM
CC(C)(C)C(=O)C1=C(O)C(=O)N(c2ccc3[nH]cnc3c2)C1c1cc2ccccc2nc1Cl (stereo not drawn) [Compound 392, 1-(1H-Benzoimidazol-5-yl)-5-(2-chloro-quinolin-3-yl)-4-(2,2-dimethyl-propionyl)-3-hydroxy-1,5-dihydro-pyrrol-2-one] | 4.45 µM
CC1=C(O)C(=O)N(c2ccc3[nH]cnc3c2)C1c1c(F)c(F)cc(F)c1F (stereo not drawn) [Compound 393, 1-(1H-Benzoimidazol-5-yl)-3-hydroxy-4-methyl-5-(2,3,5,6-tetrafluoro-phenyl)-1,5-dihydro-pyrrol-2-one] | 4.09 µM
CC1=C(O)C(=O)N(c2ccc3[nH]cnc3c2)C1c1cc(C)c(C)o1 (stereo not drawn) [Compound 394, 1-(1H-Benzoimidazol-5-yl)-5-(4,5-dimethyl-furan-2-yl)-3-hydroxy-4-methyl-1,5-dihydro-pyrrol-2-one] | 9.22 µM
CC(C)(C)C(=O)C1=C(O)C(=O)N(c2ccc3[nH]cnc3c2)C1c1cc(Br)ccc1F (stereo not drawn) [Compound 396, 1-(1H-Benzoimidazol-5-yl)-5-(5-bromo-2-fluoro-phenyl)-4-(2,2-dimethyl-propionyl)-3-hydroxy-1,5-dihydro-pyrrol-2-one] | 4.45 µM
CCC1=C(O)C(=O)N(c2ccc3[nH]cnc3c2)C1c1c(F)c(F)cc(F)c1F (stereo not drawn) [Compound 400, 1-(1H-Benzoimidazol-5-yl)-4-ethyl-3-hydroxy-5-(2,3,5,6-tetrafluoro-phenyl)-1,5-dihydro-pyrrol-2-one] | 6.97 µM
CC(C)(C)C(=O)C1=C(O)C(=O)N(c2ccc3[nH]cnc3c2)C1c1nccs1 (stereo not drawn) [Compound 402, 1-(1H-Benzoimidazol-5-yl)-4-(2,2-dimethyl-propionyl)-3-hydroxy-5-thiazol-2-yl-1,5-dihydro-pyrrol-2-one] | 6.34 µM
CCC1=C(O)C(=O)N(c2ccc3[nH]cnc3c2)C1c1ccc(N2CCCC2)cc1 (stereo not drawn) [Compound 406, 1-(1H-Benzoimidazol-5-yl)-4-ethyl-3-hydroxy-5-(4-pyrrolidin-1-yl-phenyl)-1,5-dihydro-pyrrol-2-one] | 8.32 µM

Stronger by IC50, values ahead:

IC50 | Compound
0.4 µM | O=C(C1=C(O)C(=O)N(c2ccc3[nH]cnc3c2)C1c1ccc(Cl)c(Cl)c1)C1CCCCC1 (stereo not drawn) [Compound 372, 1-(1H-Benzoimidazol-5-yl)-4-cyclohexanecarbonyl-5-(3,4-dichloro-phenyl)-3-hydroxy-1,5-dihydro-pyrrol-2-one]
0.76 µM | O=C(O)c1ccc(C2C(C(=O)C3CCCCC3)=C(O)C(=O)N2c2ccc3[nH]cnc3c2)o1 (stereo not drawn) [Compound 374, 5-[1-(1H-Benzoimidazol-5-yl)-3-cyclohexanecarbonyl-4-hydroxy-5-oxo-2,5-dihydro-1H-pyrrol-2-yl]-furan-2-carboxylic acid]
0.004 µM | CC(=O)C1=C(O)C(=O)N(c2ccc3[nH]cnc3c2)C1c1ccc2nsnc2c1 (stereo not drawn) [Compound 376, 4-Acetyl-1-(1H-benzoimidazol-5-yl)-5-benzo[c][1,2,5]thiadiazol-5-yl-3-hydroxy-1,5-dihydro-pyrrol-2-one]
1.48 µM | CC(C)C1=C(O)C(=O)N(c2ccc3[nH]cnc3c2)C1c1ccc(O)c(Br)c1 (stereo not drawn) [Compound 377, 1-(1H-Benzoimidazol-5-yl)-5-(3-bromo-4-hydroxy-phenyl)-3-hydroxy-4-isopropyl-1,5-dihydro-pyrrol-2-one]
1.03 µM | CC1=C(O)C(=O)N(c2ccc3[nH]cnc3c2)C1c1ccc2nsnc2c1 (stereo not drawn) [Compound 380, 1-(1H-Benzoimidazol-5-yl)-5-benzo[c][1,2,5]thiadiazol-5-yl-3-hydroxy-4-methyl-1,5-dihydro-pyrrol-2-one]
1.75 µM | Cc1cccc(C2C(C(=O)C3CCCCC3)=C(O)C(=O)N2c2ccc3[nH]cnc3c2)n1 (stereo not drawn) [Compound 381, 1-(1H-Benzoimidazol-5-yl)-4-cyclohexanecarbonyl-3-hydroxy-5-(6-methyl-pyridin-2-yl)-1,5-dihydro-pyrrol-2-one]
0.76 µM | Cc1cccc(C2C(c3c[nH]c4ccccc34)=C(O)C(=O)N2c2ccc3[nH]cnc3c2)n1 (stereo not drawn) [Compound 385, 1-(1H-Benzoimidazol-5-yl)-3-hydroxy-4-(1H-indol-3-yl)-5-(6-methyl-pyridin-2-yl)-1,5-dihydro-pyrrol-2-one]
1.93 µM | CC1=C(O)C(=O)N(c2ccc3[nH]cnc3c2)C1c1ccccc1F (stereo not drawn) [Compound 386, 1-(1H-Benzoimidazol-5-yl)-5-(2-fluoro-phenyl)-3-hydroxy-4-methyl-1,5-dihydro-pyrrol-2-one]
0.22 µM | O=C(O)c1ccc(C2C(c3ccc(O)cc3)=C(O)C(=O)N2c2ccc3[nH]cnc3c2)o1 (stereo not drawn) [Compound 389, 5-[1-(1H-Benzoimidazol-5-yl)-4-hydroxy-3-(4-hydroxy-phenyl)-5-oxo-2,5-dihydro-1H-pyrrol-2-yl]-furan-2-carboxylic acid]
0.04 µM | O=C1C(O)=C(c2c[nH]c3ccccc23)C(c2ccc3nonc3c2)N1c1ccc2[nH]cnc2c1 (stereo not drawn) [Compound 390, 1-(1H-Benzoimidazol-5-yl)-5-(benzo[c][1,2,5]oxadiazol-5-yl)-3-hydroxy-4-(1H-indol-3-yl)-1,5-dihydro-pyrrol-2-one]
0.04 µM | O=C1C(O)=C(c2ccc(O)cc2)C(c2ccc3cccc(O)c3n2)N1c1ccc2[nH]cnc2c1 (stereo not drawn) [Compound 391, 1-(1H-Benzoimidazol-5-yl)-3-hydroxy-4-(4-hydroxy-phenyl)-5-(8-hydroxy-quinolin-2-yl)-1,5-dihydro-pyrrol-2-one]
1.39 µM | Cc1cc(C2C(c3ccccc3)=C(O)C(=O)N2c2ccc3[nH]cnc3c2)oc1C (stereo not drawn) [Compound 395, 1-(1H-Benzoimidazol-5-yl)-5-(4,5-dimethyl-furan-2-yl)-3-hydroxy-4-phenyl-1,5-dihydro-pyrrol-2-one]
1.21 µM | CC(=O)C1=C(O)C(=O)N(c2ccc3[nH]cnc3c2)C1c1cc[n+]([O-])cc1 (stereo not drawn) [Compound 397, 4-Acetyl-1-(1H-benzoimidazol-5-yl)-3-hydroxy-5-(1-oxy-pyridin-4-yl)-1,5-dihydro-pyrrol-2-one]
0.04 µM | O=C1C(O)=C(c2ccccc2)C(c2ccc3cccc(O)c3n2)N1c1ccc2[nH]cnc2c1 (stereo not drawn) [Compound 398, 1-(1H-Benzoimidazol-5-yl)-3-hydroxy-5-(8-hydroxy-quinolin-2-yl)-4-phenyl-1,5-dihydro-pyrrol-2-one]
1.39 µM | CC1=C(O)C(=O)N(c2ccc3[nH]cnc3c2)C1c1ccc(C(=O)O)o1 (stereo not drawn) [Compound 399, 5-[1-(1H-Benzoimidazol-5-yl)-4-hydroxy-3-methyl-5-oxo-2,5-dihydro-1H-pyrrol-2-yl]-furan-2-carboxylic acid]
3.01 µM | CC(C)(C)C(=O)C1=C(O)C(=O)N(c2ccc3[nH]cnc3c2)C1c1ccc(-c2ccccn2)cc1 (stereo not drawn) [Compound 401, 1-(1H-Benzoimidazol-5-yl)-4-(2,2-dimethyl-propionyl)-3-hydroxy-5-(4-pyridin-2-yl-phenyl)-1,5-dihydro-pyrrol-2-one]
1.57 µM | CCCC(=O)C1=C(O)C(=O)N(c2ccc3[nH]cnc3c2)C1c1ccnc2ccccc12 (stereo not drawn) [Compound 404, 1-(1H-Benzoimidazol-5-yl)-4-butyryl-3-hydroxy-5-quinolin-4-yl-1,5-dihydro-pyrrol-2-one]
2.2 µM | CC(C)(C)C(=O)C1=C(O)C(=O)N(c2ccc3[nH]cnc3c2)C1c1cc[nH]n1 (stereo not drawn) [Compound 405, 1-(1H-Benzoimidazol-5-yl)-4-(2,2-dimethyl-propionyl)-3-hydroxy-5-(1H-pyrazol-3-yl)-1,5-dihydro-pyrrol-2-one]
